According to patent publication US9382218B2, “N-heteroaryl substituted aniline derivatives as HCV-antivirals” (priority 2013, dated 2016):
pEC50: −log10 of the molar value.

Columns and labels:
Assay in all cases: microbe, parasite or virus in culture
[1] = test system: HCVpp GT-1a (pseudotyped HCV particles, E1/E2 of GT1a H77 strain); format: cell-based, Hepatitis C virus GT1a H77 strain; conditions: Hepatitis C virus, 72 h, read-out: HCVpp GT-1a (EC50, M)
[2] = test system: VSVpp (pseudotyped VSV G particles); format: cell-based; conditions: Vesicular stomatitis virus, 72 h, read-out: VSVpp (EC50, M)
[3] = test system: HCVpp GT-1b (pseudotyped HCV particles, E1/E2 of GT1b Con1 strain); format: cell-based, Hepatitis C virus GT1b Con1 strain; conditions: Hepatitis C virus, 72 h, read-out: HCVpp GT-1b (EC50, M)

SMILES: Nc1cnc(Nc2cc(Cl)cc(Cl)c2)o1 [Compound 11, N^2-(3,5-Dichloro-phenyl)-oxazole-2,5-diamine]
- pEC50 [1]: 4.53
- pEC50 [2]: ≤ 4.00

SMILES: Nc1nc(Nc2cc(Cl)cc(C(F)(F)F)c2)no1 [Compound 8, N^3-(3-Chloro-5-trifluoromethyl-phenyl)-[1,2,4]oxadiazole-3,5-diamine]
- pEC50 [3]: 5.04
- pEC50 [2]: ≤ 4.00

SMILES: Nc1nc(Nc2cc(Cl)cc(Cl)c2)no1 [Compound 6, N^3-(3,5-Dichloro-phenyl)-[1,2,4]oxadiazole-3,5-diamine]
- pEC50 [1]: 5.45
- pEC50 [3]: 4.99
- pEC50 [2]: 4.07

SMILES: Nc1nc(Nc2cccc(C(F)(F)F)c2)no1 [Compound 4, N^3-(3-Trifluoromethyl-phenyl)-[1,2,4]oxadiazole-3,5-diamine]
- pEC50 [1]: 5.87
- pEC50 [3]: 5.22
- pEC50 [2]: < 4.00

SMILES: CS(=O)(=O)Nc1cccc(-c2c(Cl)cc(Nc3nc(N)no3)cc2C(F)(F)F)c1 [Compound 9, N-[4′-(3-Amino-[1,2,4]oxadiazol-5-ylamino)-6′-chloro-2′-trifluoromethyl-biphenyl-3-yl]-methanesulfonamide]
- pEC50 [3]: 5.52
- pEC50 [2]: 5.15

SMILES: CS(=O)(=O)Nc1cccc(-c2c(Cl)cc(Nc3noc(N)n3)cc2C(F)(F)F)c1 [Compound 10, N-[4′-(5-Amino-[1,2,4]oxadiazol-3-ylamino)-6′-chloro-2′-trifluoromethyl-biphenyl-3-yl]-methanesulfonamide]
- pEC50 [3]: 5.82
- pEC50 [2]: 5.01

SMILES: Cc1nnc(Nc2cc(Cl)cc(Cl)c2)o1 [Compound 3, (3,5-Dichloro-phenyl)-(5-methyl-[1,3,4]oxadiazol-2-yl)-amine]
- pEC50 [1]: 4.41
- pEC50 [3]: 4.45
- pEC50 [2]: ≤ 4.00

SMILES: Nc1cc(Nc2cc(Cl)c(F)c(Cl)c2)[nH]n1 [Compound 2, N^5-(3,5-Dichloro-4-fluoro-phenyl)-1H-pyrazole-3,5-diamine]
- pEC50 [3]: 4.28
- pEC50 [2]: 4.47

SMILES: Nc1cc(Nc2cc(Cl)cc(Cl)c2)[nH]n1 [Compound 1, N^5-(3,5-Dichloro-phenyl)-1H-pyrazole-3,5-diamine]
- pEC50 [1]: 4.40
- pEC50 [3]: 4.19
- pEC50 [2]: ≤ 4.00

SMILES: Nc1noc(Nc2cc(Cl)cc(Cl)c2)n1 [Compound 5, N^5-(3,5-Dichloro-phenyl)-[1,2,4]oxadiazole-3,5-diamine]
- pEC50 [1]: 5.06
- pEC50 [3]: 5.04
- pEC50 [2]: 5.01
